# Activity calls are given as the source filed them.
# Legend:
# [1] = biological target: Peroxisome proliferator-activated receptor gamma/Nuclear receptor coactivator 1 (Homo sapiens, UniProt P37231); experiment: TR-FRET dose response biochemical High Throughput Screening assay for agonists of the steroid receptor coactivator 1 (SRC-1) recruitment by the peroxisome proliferator-activated receptor gamma (PPAR gamma): non-selective agonists. [Related pubchem assays (depositor defined):AID1300, AID1808, AID504735, AID631]; format: protein assay
# [2] = biological target: Peroxisome proliferator-activated receptor gamma/Nuclear receptor coactivator 3 (Homo sapiens, UniProt P37231); experiment: TR-FRET dose response biochemical High Throughput Screening assay for agonists of the steroid receptor coactivator 3 (SRC-3) recruitment by the peroxisome proliferator-activated receptor gamma (PPAR gamma): non-selective agonists. [Related pubchem assays: 1301 (Confirmation screen.), 1048 (Primary screen.)]; format: functional
# [3] = biological target: Peroxisome proliferator-activated receptor gamma/Nuclear receptor coactivator 2 (Homo sapiens, UniProt P37231); experiment: TR-FRET dose response biochemical High Throughput Screening assay for agonists of the steroid receptor coactivator 2 (SRC-2) recruitment by the peroxisome proliferator-activated receptor gamma (PPAR gamma): non-selective agonists. [Related pubchem assays: 1297, 1032 ]; format: functional
# Escherichia coli = experiment: microbe, parasite or virus in culture
# [4] = viability of uninfected HEp-2 cells – cell-based, HTS, cytotoxicity control for RSV inhibitor project, dose response (AID 2410); format: functional; details: human respiratory syncytial virus
# [5] = biological target: T1, Delta-type opioid receptor (Homo sapiens, UniProt P41143); experiment: HTS Image-Based Screen for Antagonists of the DOR Receptor. [Related pubchem assays (depositor defined):AID1777, AID1785, AID1786, AID2133]; format: functional
# Mu-type opioid receptor = Mu-type opioid receptor (Homo sapiens, UniProt P35372); experiment: HTS Image-Based Screen for Agonists of the MOR Receptor. [Related pubchem assays (depositor defined):AID1777, AID1785, AID1786, AID2133]; format: functional;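 note: imaging of beta-arrestin GFP recruitment into spots after receptor activation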
# [6] = biological target: T1, Delta-type opioid receptor; experiment: HTS Image-Based Screen for Agonists of the DOR Receptor. [Related pubchem assays (depositor defined):AID1777, AID1786, AID2133]; format: functional
# [7] = microbe, parasite or virus in culture; format: functional; details: Mycobacterium tuberculosis
# [8] = biological target: T2, Kappa-type opioid receptor (Homo sapiens, UniProt P41145); format: functional
# Beta-galactosidase = Beta-galactosidase (Escherichia coli, UniProt Q8VNN2); format: functional
# [9] = biological target: T2, Kappa-type opioid receptor; format: functional; remark: listed apart in the source
# [10] = biological target: T3, Short transient receptor potential channel 4 (Mus musculus, UniProt Q9QUQ5); experiment: calcium entry via TRPC4 opening agents – cell-based, HEK293 TRPC4/mu-opioid, Fluo-4 calcium, dose response (AID 434937); format: functional
# T3 sequence (Q9QUQ5 whole entry): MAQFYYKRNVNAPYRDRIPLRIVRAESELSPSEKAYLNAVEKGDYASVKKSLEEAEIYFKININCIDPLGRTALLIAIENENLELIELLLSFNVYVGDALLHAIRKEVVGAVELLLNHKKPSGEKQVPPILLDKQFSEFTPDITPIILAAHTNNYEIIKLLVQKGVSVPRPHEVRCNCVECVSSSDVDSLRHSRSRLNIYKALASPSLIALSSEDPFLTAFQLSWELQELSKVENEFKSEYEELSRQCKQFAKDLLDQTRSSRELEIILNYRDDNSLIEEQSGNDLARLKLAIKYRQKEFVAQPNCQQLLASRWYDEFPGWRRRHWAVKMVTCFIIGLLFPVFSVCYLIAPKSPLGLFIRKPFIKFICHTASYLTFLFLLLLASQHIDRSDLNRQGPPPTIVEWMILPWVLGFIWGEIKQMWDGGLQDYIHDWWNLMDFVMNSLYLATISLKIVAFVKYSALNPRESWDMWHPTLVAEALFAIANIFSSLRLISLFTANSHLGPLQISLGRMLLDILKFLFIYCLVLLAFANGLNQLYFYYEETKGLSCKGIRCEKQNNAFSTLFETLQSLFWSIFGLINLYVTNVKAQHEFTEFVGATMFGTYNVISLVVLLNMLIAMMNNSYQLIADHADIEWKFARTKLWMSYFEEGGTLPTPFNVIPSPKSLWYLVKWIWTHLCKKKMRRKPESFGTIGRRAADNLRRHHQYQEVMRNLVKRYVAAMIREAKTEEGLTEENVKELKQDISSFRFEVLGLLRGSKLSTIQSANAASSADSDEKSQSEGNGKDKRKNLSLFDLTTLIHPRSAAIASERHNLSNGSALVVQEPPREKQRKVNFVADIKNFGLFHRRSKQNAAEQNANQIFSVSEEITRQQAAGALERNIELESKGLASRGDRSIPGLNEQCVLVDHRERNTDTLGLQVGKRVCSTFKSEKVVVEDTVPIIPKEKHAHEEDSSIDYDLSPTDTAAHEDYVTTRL
# [11] = reduction of Shn3 3'UTR-driven luciferase in osteoblasts – cell-based, Clone20 osteoblasts, firefly luciferase, cherry-picked, dose response (AID 624132); format: functional;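 note: firefly luciferase luminescence from reporter carrying the Shn3 3'UTR in osteoblasts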
# [12] = loss of viability in HepG2 cells – cell-based, CellTiter-Glo, cherry-picked, cytotoxicity control for Shn3 inhibitor project, dose response (AID 624134); format: functional
# [13] = biological target: T4, Histone-lysine N-methyltransferase NSD2 (Homo sapiens, UniProt O96028); format: biochemical
# T4 sequence (O96028 whole entry): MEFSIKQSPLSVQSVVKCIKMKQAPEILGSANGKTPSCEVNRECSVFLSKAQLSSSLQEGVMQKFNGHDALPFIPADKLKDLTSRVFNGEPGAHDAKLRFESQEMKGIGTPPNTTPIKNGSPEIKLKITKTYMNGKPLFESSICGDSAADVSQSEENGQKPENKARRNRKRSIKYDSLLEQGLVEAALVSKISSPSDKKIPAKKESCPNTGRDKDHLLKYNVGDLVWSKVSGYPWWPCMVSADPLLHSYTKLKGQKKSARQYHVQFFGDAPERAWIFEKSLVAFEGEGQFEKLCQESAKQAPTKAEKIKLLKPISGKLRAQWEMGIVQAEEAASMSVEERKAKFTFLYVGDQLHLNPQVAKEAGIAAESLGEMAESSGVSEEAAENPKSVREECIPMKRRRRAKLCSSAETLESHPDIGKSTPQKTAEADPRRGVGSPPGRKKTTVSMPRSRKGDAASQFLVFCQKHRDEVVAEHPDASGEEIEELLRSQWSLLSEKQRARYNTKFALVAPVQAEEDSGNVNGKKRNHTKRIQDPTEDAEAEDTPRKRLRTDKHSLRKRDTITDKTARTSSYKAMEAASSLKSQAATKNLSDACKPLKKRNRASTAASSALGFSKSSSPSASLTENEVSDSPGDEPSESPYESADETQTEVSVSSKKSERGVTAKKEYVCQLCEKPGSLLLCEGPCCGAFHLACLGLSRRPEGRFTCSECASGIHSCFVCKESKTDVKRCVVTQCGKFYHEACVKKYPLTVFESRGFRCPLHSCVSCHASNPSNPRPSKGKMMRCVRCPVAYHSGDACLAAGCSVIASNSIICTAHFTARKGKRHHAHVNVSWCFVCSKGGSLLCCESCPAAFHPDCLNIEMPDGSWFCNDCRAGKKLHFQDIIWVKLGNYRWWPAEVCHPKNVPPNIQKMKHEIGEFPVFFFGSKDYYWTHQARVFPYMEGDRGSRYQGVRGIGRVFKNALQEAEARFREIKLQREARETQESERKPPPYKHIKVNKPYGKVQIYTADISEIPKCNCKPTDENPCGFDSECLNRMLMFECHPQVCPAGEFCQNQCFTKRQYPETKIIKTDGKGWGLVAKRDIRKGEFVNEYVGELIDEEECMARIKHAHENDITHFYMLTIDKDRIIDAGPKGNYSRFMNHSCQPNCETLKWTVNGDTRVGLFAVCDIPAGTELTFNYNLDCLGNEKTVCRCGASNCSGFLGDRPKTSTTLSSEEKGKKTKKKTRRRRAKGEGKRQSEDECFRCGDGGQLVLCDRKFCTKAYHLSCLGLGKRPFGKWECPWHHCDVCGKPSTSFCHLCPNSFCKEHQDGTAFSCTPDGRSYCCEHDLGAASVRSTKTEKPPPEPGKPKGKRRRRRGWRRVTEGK
# HEK293 [14] = experiment: cells; details: Homo sapiens
# HEK293 [15] = experiment: cells; details: Homo sapiens; remark: listed apart in the source
# Vero [16] = experiment: cells; format: functional, cell-based; details: Chlorocebus sabaeus
# Vero [17] = experiment: cells; format: functional; details: Chlorocebus sabaeus
# Coagulation factor XII = biological target: T5, Coagulation factor XII (Homo sapiens, UniProt P00748); format: functional;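 note: activated factor XIIa alpha cleaving a fluorogenic AMC peptide substrate; inhibitor potency from loss of enzyme activity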
# T5 sequence (P00748 whole entry): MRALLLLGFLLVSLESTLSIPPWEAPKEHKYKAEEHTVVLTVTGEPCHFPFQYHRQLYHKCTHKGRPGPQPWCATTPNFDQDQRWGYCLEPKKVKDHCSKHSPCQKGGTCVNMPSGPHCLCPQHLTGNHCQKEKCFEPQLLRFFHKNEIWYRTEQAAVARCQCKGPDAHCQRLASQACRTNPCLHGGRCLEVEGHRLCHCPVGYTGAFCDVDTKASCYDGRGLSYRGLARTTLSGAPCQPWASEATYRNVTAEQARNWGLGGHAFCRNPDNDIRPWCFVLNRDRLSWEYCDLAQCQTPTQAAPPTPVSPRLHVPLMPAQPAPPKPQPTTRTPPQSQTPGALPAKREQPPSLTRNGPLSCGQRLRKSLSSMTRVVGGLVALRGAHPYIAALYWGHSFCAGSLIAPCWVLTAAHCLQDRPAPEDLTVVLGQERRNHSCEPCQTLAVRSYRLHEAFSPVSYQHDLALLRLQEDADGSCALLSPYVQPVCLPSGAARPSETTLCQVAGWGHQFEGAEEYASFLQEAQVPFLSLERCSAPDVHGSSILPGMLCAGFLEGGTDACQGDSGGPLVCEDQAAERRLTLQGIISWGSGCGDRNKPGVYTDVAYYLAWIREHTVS
# [18] = biological target: T6, Voltage-gated N-type calcium channel alpha-1B subunit/Amyloid beta A4 precursor protein-binding family A member 1 (Homo sapiens, UniProt Q00975+Q02410); format: protein assay
# [19] = biological target: T6, Voltage-gated N-type calcium channel alpha-1B subunit/Amyloid beta A4 precursor protein-binding family A member 1; format: protein assay; remark: listed apart in the source
# HEK293 [20] = experiment: EBV LMP1 TES2 canonical NF-kB signalling blockers – cell-based, HEK293, luciferase, cherry-pick, dose response (AID 588343); format: functional; details: Homo sapiens
# Fatty acid synthase [21] = biological target: T7, Fatty acid synthase (Homo sapiens, UniProt P49327); experiment: inhibition of human FAS-TE enzyme activity – biochemical, endpoint fluorescence intensity, uHTS hits, dose response (AID 624327); format: functional;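 note: fluorescence from hydrolysis of an O-methyl fluorescein acyl ester substrate by the enzyme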
# Fatty acid synthase [22] = biological target: T7, Fatty acid synthase; experiment: inhibition of human FAS-TE enzyme activity – biochemical, kinetic fluorescence intensity, dose response (AID 624326); format: functional;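 note: rate of fluorescence rise from hydrolysis of a fluorogenic O-methyl fluorescein ester substrate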
# T6 sequence (Q00975 whole entry): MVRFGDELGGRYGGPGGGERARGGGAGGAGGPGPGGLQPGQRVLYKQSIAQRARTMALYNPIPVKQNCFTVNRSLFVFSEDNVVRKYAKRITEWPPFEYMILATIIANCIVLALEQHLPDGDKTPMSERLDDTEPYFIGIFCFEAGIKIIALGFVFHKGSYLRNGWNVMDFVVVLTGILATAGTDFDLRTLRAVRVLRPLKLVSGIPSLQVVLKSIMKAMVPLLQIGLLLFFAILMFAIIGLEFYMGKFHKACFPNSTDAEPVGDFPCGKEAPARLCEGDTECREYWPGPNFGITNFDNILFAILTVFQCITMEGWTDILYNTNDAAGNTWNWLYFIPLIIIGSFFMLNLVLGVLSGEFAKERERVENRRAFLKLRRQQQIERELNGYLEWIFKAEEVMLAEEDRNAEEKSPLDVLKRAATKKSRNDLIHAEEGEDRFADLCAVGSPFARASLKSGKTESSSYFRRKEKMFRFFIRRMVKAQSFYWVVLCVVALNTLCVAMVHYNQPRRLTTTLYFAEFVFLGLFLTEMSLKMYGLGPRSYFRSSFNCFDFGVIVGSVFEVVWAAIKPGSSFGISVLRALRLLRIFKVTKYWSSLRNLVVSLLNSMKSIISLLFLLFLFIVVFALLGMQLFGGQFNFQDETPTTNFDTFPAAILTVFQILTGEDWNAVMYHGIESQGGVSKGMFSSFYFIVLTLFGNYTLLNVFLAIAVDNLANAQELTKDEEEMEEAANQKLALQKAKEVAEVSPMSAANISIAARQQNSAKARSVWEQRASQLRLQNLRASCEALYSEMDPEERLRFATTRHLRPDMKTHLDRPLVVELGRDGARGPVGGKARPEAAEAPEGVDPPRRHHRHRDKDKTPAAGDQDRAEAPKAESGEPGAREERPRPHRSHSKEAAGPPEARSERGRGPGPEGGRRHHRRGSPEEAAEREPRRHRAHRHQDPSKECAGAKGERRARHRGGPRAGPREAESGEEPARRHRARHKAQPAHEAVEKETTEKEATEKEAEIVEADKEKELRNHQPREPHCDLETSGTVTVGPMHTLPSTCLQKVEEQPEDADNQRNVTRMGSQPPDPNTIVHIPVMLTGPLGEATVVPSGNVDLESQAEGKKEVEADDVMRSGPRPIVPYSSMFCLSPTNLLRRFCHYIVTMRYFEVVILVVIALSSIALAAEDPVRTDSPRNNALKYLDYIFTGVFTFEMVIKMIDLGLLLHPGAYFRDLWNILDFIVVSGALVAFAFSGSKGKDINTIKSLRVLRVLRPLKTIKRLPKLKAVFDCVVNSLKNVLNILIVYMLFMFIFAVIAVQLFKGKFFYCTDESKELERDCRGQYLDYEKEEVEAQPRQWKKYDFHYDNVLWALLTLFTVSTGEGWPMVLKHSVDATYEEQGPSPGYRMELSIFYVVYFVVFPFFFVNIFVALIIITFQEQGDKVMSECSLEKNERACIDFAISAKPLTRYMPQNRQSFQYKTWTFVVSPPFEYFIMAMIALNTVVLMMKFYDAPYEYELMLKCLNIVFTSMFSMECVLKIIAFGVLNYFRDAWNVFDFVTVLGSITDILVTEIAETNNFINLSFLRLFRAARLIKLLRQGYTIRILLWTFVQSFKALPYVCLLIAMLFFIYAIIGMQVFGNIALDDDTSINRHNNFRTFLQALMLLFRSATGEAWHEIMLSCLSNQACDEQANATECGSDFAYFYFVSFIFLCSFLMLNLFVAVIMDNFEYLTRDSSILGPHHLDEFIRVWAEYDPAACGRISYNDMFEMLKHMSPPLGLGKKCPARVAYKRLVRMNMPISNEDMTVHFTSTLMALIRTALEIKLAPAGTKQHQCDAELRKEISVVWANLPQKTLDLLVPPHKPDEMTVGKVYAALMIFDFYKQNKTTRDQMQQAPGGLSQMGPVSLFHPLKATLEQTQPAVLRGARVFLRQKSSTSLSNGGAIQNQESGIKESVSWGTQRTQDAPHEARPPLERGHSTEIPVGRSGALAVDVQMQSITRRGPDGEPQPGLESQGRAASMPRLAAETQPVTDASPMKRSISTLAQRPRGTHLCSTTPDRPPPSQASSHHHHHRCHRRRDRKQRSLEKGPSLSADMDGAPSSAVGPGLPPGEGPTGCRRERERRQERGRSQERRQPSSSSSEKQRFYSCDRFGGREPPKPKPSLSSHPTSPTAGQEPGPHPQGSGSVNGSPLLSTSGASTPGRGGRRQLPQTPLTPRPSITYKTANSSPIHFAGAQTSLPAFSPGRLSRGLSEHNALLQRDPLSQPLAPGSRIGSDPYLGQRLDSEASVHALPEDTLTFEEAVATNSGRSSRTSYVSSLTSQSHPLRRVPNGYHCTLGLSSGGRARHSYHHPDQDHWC
# T6 sequence (Q02410 whole entry): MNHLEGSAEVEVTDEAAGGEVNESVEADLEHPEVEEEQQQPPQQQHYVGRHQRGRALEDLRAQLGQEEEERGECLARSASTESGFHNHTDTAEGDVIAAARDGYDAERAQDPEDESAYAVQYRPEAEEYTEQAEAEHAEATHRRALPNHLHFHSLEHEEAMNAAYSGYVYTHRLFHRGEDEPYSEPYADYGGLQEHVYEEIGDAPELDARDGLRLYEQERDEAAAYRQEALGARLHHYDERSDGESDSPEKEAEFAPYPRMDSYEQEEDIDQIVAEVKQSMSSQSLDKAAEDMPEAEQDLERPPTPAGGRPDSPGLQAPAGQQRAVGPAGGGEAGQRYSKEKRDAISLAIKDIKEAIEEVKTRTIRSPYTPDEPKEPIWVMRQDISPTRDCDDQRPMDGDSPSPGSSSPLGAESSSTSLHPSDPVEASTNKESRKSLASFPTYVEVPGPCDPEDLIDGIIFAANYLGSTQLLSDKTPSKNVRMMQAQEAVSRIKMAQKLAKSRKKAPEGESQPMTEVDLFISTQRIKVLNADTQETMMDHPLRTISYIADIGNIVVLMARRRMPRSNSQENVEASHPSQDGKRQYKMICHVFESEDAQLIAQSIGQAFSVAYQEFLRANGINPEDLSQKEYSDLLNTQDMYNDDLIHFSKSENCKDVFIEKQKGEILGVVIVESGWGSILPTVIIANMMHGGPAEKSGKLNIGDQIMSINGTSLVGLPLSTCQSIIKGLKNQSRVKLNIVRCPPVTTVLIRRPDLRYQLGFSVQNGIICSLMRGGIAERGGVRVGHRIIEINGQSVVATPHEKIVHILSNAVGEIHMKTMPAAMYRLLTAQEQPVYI
# T2 sequence (P41145 whole entry): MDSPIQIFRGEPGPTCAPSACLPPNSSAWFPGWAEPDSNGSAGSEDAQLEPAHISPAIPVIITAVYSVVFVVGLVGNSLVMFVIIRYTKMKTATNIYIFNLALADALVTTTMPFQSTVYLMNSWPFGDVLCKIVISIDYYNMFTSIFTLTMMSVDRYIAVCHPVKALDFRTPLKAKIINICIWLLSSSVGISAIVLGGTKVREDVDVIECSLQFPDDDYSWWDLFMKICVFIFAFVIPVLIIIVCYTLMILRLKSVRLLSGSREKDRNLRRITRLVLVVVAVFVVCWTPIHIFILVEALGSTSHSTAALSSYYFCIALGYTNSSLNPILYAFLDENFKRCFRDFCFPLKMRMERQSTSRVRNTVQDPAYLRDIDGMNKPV
# T1 sequence (P41143 whole entry): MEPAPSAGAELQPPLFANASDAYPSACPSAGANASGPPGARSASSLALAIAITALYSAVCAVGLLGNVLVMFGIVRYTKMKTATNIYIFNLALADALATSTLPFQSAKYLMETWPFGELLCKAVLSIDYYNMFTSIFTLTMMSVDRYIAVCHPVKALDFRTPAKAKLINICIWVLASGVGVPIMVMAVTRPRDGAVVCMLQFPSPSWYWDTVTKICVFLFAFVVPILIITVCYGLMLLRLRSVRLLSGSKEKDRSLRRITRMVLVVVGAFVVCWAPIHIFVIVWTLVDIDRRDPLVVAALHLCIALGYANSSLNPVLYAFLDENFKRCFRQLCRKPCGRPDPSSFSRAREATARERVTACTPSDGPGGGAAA
# Chain of Beta-galactosidase (Q8VNN2 whole entry): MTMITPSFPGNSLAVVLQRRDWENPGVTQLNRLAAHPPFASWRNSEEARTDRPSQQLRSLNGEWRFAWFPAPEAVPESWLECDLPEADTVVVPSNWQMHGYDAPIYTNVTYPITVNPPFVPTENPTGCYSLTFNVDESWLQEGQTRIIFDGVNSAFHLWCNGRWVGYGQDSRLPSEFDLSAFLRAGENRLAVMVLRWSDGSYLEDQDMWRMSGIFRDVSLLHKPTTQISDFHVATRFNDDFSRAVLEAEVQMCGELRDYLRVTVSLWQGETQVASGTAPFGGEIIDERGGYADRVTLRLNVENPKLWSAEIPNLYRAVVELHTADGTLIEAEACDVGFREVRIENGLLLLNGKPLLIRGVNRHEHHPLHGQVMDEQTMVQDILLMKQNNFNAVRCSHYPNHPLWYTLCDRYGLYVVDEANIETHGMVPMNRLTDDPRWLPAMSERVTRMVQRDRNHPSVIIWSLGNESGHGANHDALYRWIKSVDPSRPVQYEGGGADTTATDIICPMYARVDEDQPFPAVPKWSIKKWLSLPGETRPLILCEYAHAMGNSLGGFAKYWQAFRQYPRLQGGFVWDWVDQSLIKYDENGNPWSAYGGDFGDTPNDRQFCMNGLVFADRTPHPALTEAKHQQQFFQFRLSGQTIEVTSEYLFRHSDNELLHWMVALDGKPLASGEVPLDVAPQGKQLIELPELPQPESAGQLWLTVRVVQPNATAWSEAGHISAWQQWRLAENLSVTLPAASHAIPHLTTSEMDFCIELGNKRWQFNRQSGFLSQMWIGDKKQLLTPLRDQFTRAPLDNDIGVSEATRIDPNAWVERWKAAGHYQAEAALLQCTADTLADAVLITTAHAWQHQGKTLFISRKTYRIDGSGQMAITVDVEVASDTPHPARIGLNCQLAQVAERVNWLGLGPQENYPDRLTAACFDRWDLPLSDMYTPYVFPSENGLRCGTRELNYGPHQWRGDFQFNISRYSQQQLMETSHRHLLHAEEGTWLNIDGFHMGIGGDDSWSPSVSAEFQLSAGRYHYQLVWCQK
smiles,measurement,setting,value
O=C(C1=C(O)C(=O)N(CCCN2CCOCC2)C1c1ccncc1)c1cc2ccccc2o1 (configuration not stated),EC50,[1],> 79.4 µM (inactive)
same,EC50,[2],> 79.4 µM (not active)
same,EC50,[3],> 79.4 µM (not active)
Cc1ccccc1OCC(=O)Nc1ccc(S(=O)(=O)Nc2onc(C)c2C)cc1,AC50,Escherichia coli,39.2 µM (active)
COc1cc(OC)c(OC)cc1CCC(C)NCCC(c1ccccc1)c1ccccc1 (configuration not stated),CC50,[4],14.6 µM (active)
same,IC50,[5],24.4 µM (inactive)
same,EC50,Mu-type opioid receptor,> 32 µM (inactive)
same,EC50,[6],> 32 µM (inactive)
same,CC50,[7],13.9 µM (active)
same,IC50,[8],10.9 µM (active)
same,EC50,Beta-galactosidase,> 31.5 µM (inactive)
same,IC50,[9],> 32 µM
same,EC50,[10],6.68 µM (active)
same,AC50,[11],3.99 µM (active)
same,AC50,[12],8.98 µM (active)
same,AC50,[13],15.8 µM (active)
same,EC50,HEK293 [14],> 59.6 µM (inactive)
same,EC50,HEK293 [15],> 59.6 µM (inactive)
COC(=O)c1ccc(C2C(C(=O)c3cc4ccccc4o3)=C(O)C(=O)N2CCCN(C)C)cc1 (configuration not stated),EC50,[1],> 79.4 µM (inactive)
same,EC50,[2],> 79.4 µM (not active)
same,EC50,[3],51.9 µM (not active)
Fc1ccc(-c2csc3ncnc(Nc4ccc(N5CCOCC5)cc4)c23)cc1,EC50,HEK293 [14],> 59.6 µM (inactive)
same,EC50,HEK293 [15],> 59.6 µM (inactive)
O=C(c1cccc(COc2cccc3ccccc23)c1)N1CCCC1,CC50,[4],21.3 µM (active)
same,IC50,Vero [16],> 25 µM (active)
same,CC50,Vero [17],> 25 µM (active)
same,IC50,cells,> 50 µM (active)
Fc1ccccc1CSc1ncnc2c1ncn2C1CCCO1 (configuration not stated),IC50,Vero [16],8.43 µM (active)
CN1CCN(c2ncnc(Cl)c2N)CC1,IC50,Coagulation factor XII,> 50 µM (inactive)
CC(C)(C)c1nn2cnnc2n(/N=C/c2cccc3ccccc23)c1=O,AC50,Escherichia coli,38.5 µM (active)
CCOC(=O)c1cn(Cc2ccccc2)nn1,IC50,Coagulation factor XII,> 50 µM (inactive)
CCc1cc2c(=O)c(Oc3ccccc3F)c(C)oc2c(CN(C)C)c1O,IC50,[18],1.5 µM (active)
same,IC50,[19],> 50 µM (inactive)
COc1ccc(C(=O)NC(=S)Nc2ccc(NC(=O)c3ccco3)cc2)cc1[N+](=O)[O-],IC50,[18],11.9 µM (active)
same,IC50,[19],> 50 µM (inactive)
O=C(NC(Cc1c[nH]c2ccccc12)C(=O)Nc1ccc(F)c([N+](=O)[O-])c1)c1cccs1 (configuration not stated),CC50,[4],13.1 µM (active)
same,AC50,HEK293 [20],1.37 µM (active)
same,IC50,Vero [16],22.4 µM (active)
same,CC50,Vero [17],18.5 µM (active)
same,IC50,Fatty acid synthase [21],7.53 µM (active)
same,IC50,Fatty acid synthase [22],3.78 µM (active)
same,IC50,cells,10.2 µM (active)
